Consider 1 substance from US5945402A (Genetech, Inc., priority 1995, dated 1999).

A value given as a limit tells only on which side of the number the result lay.

Series [1] has as its system cervix. Particulars: 2-mg dose in methylcellulose gel, MacLennan et al. (1981); cited from earlier work.
Series [2] can be described thus: RP-HPLC stability of topical relaxin (3% methylcellulose gel). Format: physicochemical. Conditions: in contrast to shortened B-chain human relaxin. How it is done: The RP-HPLC method used for analyzing the liquid relaxin formulation, described in Example I, was modified for use with topical relaxin samples. Due to the high viscosity of the gel, samples were diluted ten-fold with water, vortexed for ^~ 5 minutes to homogenize the gel, and left undisturbed to let the bubbles rise. Analysis of these samples was performed by injecting 250 μl onto a C4-300 SynChropak (4.6×250 mm) column at room temperature. The initial equilibration buffer was 18% acetonitrile, 0.1% trifluoroacetic acid. The elution was carried out by running a 1%/min. increasing linear acetonitrile gradient to a final concentration of 45% acetonitrile after 30 minutes. The flow rate was held constant at 1.0 ml/min. and the absorbance was monitored at 214 nm. The "slowdown" step (the time it takes to draw the viscous gel into the metering device) was increased from […].
Three significant stability experiments were performed on the topical relaxin formulation. The first was to measure the stability of these preparations after being left out at room temperature for five weeks. The sample remained in the original syringe, subject to the fluctuations of temperature and light.
The second study was a measure of the stability of topical relaxin under well controlled conditions at 5° C. and 25° C. […]

Series [3] deals with cervix. Conditions: 3000 units in the cervical os, Perezgrovas and Anderson (1982); cited from earlier work.
Another series has as its system rabbit cervix. Nature of the series: Efficacy on ripening of the rabbit cervix, intravaginal gel. It counts as in vivo. Conditions: initial study, 300 μg/ml topical gel, 0.5 ml intravaginally, eighteen hours after application. How it is done: Mature pregnant female New Zealand rabbits weighing 4.5 to 6.0 kg were studied. […] Both hormones were applied intravaginally by means of a syringe and a catheter in a volume of 0.5 ml. Control animals received the vehicle alone. After 16-18 hours, the animals were sacrificed using a lethal dose of pentobarbital. […] Paraffin sections were cut and stained with hematoxylin/eosin and alcian blue PAS. Sections were evaluated for general morphology, and specifically for the degree of separation of muscular tissue and collagen fibrils in the submucosa and for the presence of characteristic PAS positive giant cells, which are multinucleate cells of macrophage origin that normally infiltrate the cervix during labor. The measurement of giant cells is accomplished using the procedure described by MacLennan et al., Am J. Obstet. Gynecol., 152: 691-696 (1985).

Turning to porcine relaxin, the “effect on cervical score” value in the series with cervix [1] is “improve the cervical score”. Moreover, the “degradation of 600 μg/ml porcine relaxin in 3% Methocel gel by HPLC” value in series [2] is listed as “degraded very little”. Moreover, the “time to increased dilatation of the cervix after infusion” value in the series with cervix [3] is not above 8 h. Further, the “cervical ripening, morphology of the pregnant cervix” value in the series on rabbit cervix was “significant dilation and cervical ripening were observed”.
